According to patent publication US9938281B2 (Merck Sharp & Dohme Corp., priority 2012, dated 2018):
pIC50: −log10 of the molar value.

Assays:
[1] = target: T1, PI3K-delta (Homo sapiens, UniProt O00329); experiment: HTRF PI3K biochemical assay, delta isoform; conditions: form screened (neutral or TFA salt) given, read-out: PI3Kdelta IC50
T1 construct: purchased Upstate; Millipore 14-604
Text: HTRF PI3K Biochemical Assay to Measure Intrinsic Potency of Compound Inhibitors
This assay was developed and further optimized from a kit produced by Upstate (Millipore catalog #33-047) and has been configured for HTS and SAR screening. Briefly, this procedure exploits the exquisite specificity and high affinity binding of enzyme reaction substrate phosphatidyl(3,4,5)triphosphate (PIP3) to the GRP1 pleckstrin homology (PH) domain to generate the signal. In the absence of PIP3, an HTRF (Homogeneous Time-Resolved Fluorescence energy transfer) complex is formed consisting of europium (Eu)-labeled anti-GST, GSTtagged GRP1-PH domain, biotin-PIP3 and streptavidin conjugated APC. The native PIP3 produced by PI3-Kinase activity disrupts in a competitive manner the biotin-PIP3 from the PH domain, resulting in the loss of energy transfer (HTRF complex) and a decrease in the signal. The format of this assay is the same for all 4 isoforms of PI3K; the differences lie in the concentration of enzyme used to achieve robust assay window. The alpha, beta, and delta assays are run at 0.5, 1, and 0.3 nM enzymes and the gamma assay is run at 5 nM enzyme. The ATP concentration is 100 uM in the alpha, beta, and delta assays and 50 uM ATP in the gamma assay. All reactions are run at 5 uM PIP2.
Compounds are serially diluted (3-fold in 100% DMSO) across a 384-well polypropylene source plated from column 3 to column 12 and column 13 to column 22, to yield 10 concentration dose response for each test compound. Columns 1, 2, 23 and 24 contain either only DMSO or pharmacological known control inhibitor.
The PI3-Kinase biochemical assay was optimized using the HTRF kit provided by Upstate (Millipore). The assay kit contains six reagents: 1) 4× Reaction Buffer; 2) native PIP2 (substrate); 3) Stop (EDTA); 4) Detection Mix A (Streptavidin-APC); 5) Detection Mix B (Eu-labeled Anti-GST plus GST-tagged PH-domain); 6) Detection Mix C.
PI3Kinase Reaction Buffer is prepared by dilution the stock 1:4 with de-ionized water. […] Enzyme addition and compound pre-incubation are initiated by the addition of 1.25 ul of PI3K (at twice its final concentration) in the 1× reaction buffer to all wells using a BioRaptor. Plates are incubated at room temperature for 15 minutes. Reactions are initiated by addition of 1.25 ul of 2× substrate solution (PIP2 and ATP in 1× reaction buffer) using BioRaptor. Plates are incubated in humidified chamber at room temperature for one hour. Reactions are quenched by addition of 0.625 uL of stop solution to all wells using the BioRaptor. The quenched reactions are then processed to detect product formation by adding 0.625 uL of Detection Solution to all wells using the BioRaptor (Detection mix C, Detection Mix A, and Detection Mix B combined together in an 18:1:1 ratio prepared 2 hours prior to use).
The loss of the HTRF signal is due to the displacement of biotinylated-PIP3 from the PH domain by the PI3K-dependent conversion of PIP2 to PIP3. This loss of signal is nonlinear with respect to both increasing product and time. This non-linear detection will impact accuracy of IC50 calculations; therefore, there is a need for a correction factor to obtain more accurate IC50 values. This correction is derived from a PIP3 standard curve run in a separate assay plate. All data were calculated using the ratio of acceptor (APC) to donor (Europium) fluorescence in each well of the assay plate. […] An IC50 was then calculated fitting the % inhibition data to the equation: % inhibition=min+(Max−min)/1+([inhibitor]/IC50)^n) where min is the % inhibition with inhibitor, max is the signal in DMSO control, and n is the Hill slope.

[2] = target: T2, PI3K-alpha (Homo sapiens, UniProt P42336); experiment: HTRF PI3K biochemical assay, alpha isoform; conditions: ratio PI3K-alpha IC50 value / PI3K-delta IC50 value
T2 construct: purchased Upstate; Millipore 14-602
T2 sequence (P42336 whole entry, canonical isoform): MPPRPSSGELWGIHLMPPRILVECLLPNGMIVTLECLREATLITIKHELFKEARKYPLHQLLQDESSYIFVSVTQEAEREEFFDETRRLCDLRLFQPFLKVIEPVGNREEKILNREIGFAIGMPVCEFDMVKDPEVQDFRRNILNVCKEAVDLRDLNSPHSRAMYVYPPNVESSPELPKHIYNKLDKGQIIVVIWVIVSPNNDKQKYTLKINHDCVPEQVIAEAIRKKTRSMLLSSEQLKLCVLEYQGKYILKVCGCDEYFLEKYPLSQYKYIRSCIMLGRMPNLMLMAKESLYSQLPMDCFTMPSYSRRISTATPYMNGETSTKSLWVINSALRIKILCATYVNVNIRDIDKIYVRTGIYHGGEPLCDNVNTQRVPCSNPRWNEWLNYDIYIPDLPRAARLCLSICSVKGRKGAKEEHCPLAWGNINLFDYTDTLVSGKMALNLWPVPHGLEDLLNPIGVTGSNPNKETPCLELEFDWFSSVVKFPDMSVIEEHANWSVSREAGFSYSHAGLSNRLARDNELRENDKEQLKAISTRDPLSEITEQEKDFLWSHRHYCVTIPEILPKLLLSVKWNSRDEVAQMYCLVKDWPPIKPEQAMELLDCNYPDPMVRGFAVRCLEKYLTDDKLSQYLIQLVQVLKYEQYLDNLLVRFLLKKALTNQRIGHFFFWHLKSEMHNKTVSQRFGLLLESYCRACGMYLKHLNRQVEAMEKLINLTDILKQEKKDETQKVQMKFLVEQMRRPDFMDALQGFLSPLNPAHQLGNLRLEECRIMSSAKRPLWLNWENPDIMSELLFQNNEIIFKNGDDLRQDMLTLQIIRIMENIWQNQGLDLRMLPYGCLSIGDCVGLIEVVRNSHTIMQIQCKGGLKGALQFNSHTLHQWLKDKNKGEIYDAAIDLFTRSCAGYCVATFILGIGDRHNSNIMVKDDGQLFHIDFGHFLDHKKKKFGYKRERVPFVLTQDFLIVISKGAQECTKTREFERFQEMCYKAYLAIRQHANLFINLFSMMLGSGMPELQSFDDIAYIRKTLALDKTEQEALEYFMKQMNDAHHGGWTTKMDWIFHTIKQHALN
T2 sequence (P27986 whole entry partner, canonical isoform): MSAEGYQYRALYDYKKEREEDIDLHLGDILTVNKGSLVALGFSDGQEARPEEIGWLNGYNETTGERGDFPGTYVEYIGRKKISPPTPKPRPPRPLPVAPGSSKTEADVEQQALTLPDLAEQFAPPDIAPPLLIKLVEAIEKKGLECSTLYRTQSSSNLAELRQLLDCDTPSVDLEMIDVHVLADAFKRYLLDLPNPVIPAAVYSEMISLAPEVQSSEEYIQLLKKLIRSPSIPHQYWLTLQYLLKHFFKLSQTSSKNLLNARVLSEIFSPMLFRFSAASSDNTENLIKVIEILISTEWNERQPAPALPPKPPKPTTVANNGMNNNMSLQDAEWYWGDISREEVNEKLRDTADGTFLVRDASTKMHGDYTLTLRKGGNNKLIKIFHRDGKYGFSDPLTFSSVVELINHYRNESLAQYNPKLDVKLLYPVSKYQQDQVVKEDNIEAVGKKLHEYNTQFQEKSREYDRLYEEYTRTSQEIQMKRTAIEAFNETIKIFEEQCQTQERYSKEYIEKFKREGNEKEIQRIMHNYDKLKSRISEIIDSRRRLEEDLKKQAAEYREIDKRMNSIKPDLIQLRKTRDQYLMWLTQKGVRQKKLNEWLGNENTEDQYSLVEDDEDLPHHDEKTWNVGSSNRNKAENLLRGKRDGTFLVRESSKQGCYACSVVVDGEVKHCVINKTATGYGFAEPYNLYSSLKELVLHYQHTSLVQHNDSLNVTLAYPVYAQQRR

T1 sequence (O00329 whole entry, canonical isoform): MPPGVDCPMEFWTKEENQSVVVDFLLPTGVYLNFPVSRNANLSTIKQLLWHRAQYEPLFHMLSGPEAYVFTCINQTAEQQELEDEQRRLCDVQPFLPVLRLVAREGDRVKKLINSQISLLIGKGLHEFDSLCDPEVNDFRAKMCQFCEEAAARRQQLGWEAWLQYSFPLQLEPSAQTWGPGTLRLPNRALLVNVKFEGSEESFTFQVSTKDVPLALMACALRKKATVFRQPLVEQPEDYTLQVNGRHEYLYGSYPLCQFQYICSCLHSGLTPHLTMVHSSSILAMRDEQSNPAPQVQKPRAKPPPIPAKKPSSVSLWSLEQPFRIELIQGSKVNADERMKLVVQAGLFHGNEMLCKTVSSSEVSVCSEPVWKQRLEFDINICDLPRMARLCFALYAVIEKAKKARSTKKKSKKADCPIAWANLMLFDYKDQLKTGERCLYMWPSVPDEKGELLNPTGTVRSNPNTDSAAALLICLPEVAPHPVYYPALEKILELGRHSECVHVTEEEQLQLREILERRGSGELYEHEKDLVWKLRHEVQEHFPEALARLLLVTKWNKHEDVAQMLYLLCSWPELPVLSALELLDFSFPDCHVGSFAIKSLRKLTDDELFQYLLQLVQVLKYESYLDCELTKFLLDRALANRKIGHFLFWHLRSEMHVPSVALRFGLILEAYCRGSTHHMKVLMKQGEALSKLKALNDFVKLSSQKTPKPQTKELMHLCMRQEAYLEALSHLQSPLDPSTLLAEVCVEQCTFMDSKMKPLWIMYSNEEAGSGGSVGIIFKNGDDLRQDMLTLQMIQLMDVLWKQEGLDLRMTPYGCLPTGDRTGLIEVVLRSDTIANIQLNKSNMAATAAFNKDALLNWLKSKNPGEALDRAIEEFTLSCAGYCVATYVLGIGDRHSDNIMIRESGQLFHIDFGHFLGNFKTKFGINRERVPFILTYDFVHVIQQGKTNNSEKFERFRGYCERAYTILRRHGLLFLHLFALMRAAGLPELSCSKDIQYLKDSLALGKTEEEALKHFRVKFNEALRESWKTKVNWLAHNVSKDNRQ
T1 sequence (P27986 whole entry partner, canonical isoform): as the sequence (P27986 whole entry partner, canonical isoform) above

Compound	pIC50 [1]	Selectivity versus PI3Kalpha [2]
CCC(=O)N1CC[C@H](Nc2ncnc3c2nc(-c2ccc(C(F)(F)F)nc2)n3C)C1 [Compound 3-1, (S)-1-(3-((9-methyl-8-(6-(trifluoromethyl)pyridin-3-yl)-9H-purin-6-yl)amino)pyrrolidin-1-yl)propan-1-one]	7.96	>10
CCC(=O)N1CC[C@H](Nc2ncnc3c2nc(-c2cnc4[nH]ccc4c2)n3C)C1 [Compound 3-2, (S)-1-(3-((9-methyl-8-(1H-pyrrolo[2,3-b]pyridin-5-yl)-9H-purin-6-yl)amino)pyrrolidin-1-yl)propan-1-one]	> 9.00	>10
CCC(=O)N1CC[C@H](Nc2ncnc3c2nc(-c2ccc4[nH]ncc4c2)n3C)C1 [Compound 3-3, (S)-1-(3-((8-(1H-indazol-5-yl)-9-methyl-9H-purin-6-yl)amino)pyrrolidin-1-yl)propan-1-one]	8.37	>10
CCC(=O)N1CC[C@H](Nc2ncnc3c2nc(-c2ccc4cc[nH]c4c2)n3C)C1 [Compound 3-4, (S)-1-(3-((8-(1H-indol-6-yl)-9-methyl-9H-purin-6-yl)amino)pyrrolidin-1-yl)propan-1-one]	8.11	>10
CCC(=O)N1CC[C@H](Nc2ncnc3c2nc(-c2ccc(C)nc2)n3C)C1 [Compound 3-5, (S)-1-(3-((9-methyl-8-(6-methylpyridin-3-yl)-9H-purin-6-yl)amino)pyrrolidin-1-yl)propan-1-one]	8.35	>10
CCC(=O)N1CC[C@H](Nc2ncnc3c2nc(-c2ccc4cn[nH]c4c2)n3C)C1 [Compound 3-6, (S)-1-(3-((8-(1H-indazol-6-yl)-9-methyl-9H-purin-6-yl)amino)pyrrolidin-1-yl)propan-1-one]	8.80	>10
CCC(=O)N1CC[C@H](Nc2ncnc3c2nc(-c2cnc(OC)c(C(F)(F)F)c2)n3C)C1 [Compound 3-7, (S)-1-(3-((8-(6-methoxy-5-(trifluoromethyl)pyridin-3-yl)-9-methyl-9H-purin-6-yl)amino)pyrrolidin-1-yl)propan-1-one]	8.66	>10
CCC(=O)N1CC[C@H](Nc2ncnc3c2nc(-c2ccc4[nH]ccc4c2)n3C)C1 [Compound 3-8, (S)-1-(3-((8-(1H-indol-5-yl)-9-methyl-9H-purin-6-yl)amino)pyrrolidin-1-yl)propan-1-one]	7.85	>10
CCC(=O)N1CC[C@H](Nc2ncnc3c2nc(-c2cc(O)cc(F)c2)n3C)C1 [Compound 3-9, 3-fluoro-5-(9-methyl-6-{[(3S)-1-propanoylpyrrolidin-3-yl]amino}-9H-purin-8-yl)phenol]	8.89	>10
CCC(=O)N1CC[C@H](Nc2ncnc3c2nc(-c2ccc(OC)c(F)c2)n3C)C1 [Compound 3-10, 8-(3-fluoro-4-methoxyphenyl)-9-methyl-N-[(3S)-1-propanoylpyrrolidin-3-yl]-9H-purin-6-amine]	8.74	>10
CCC(=O)N1CC[C@H](Nc2ncnc3c2nc(-c2cnn(-c4ccccc4)c2C)n3C)C1 [Compound 3-11, 9-methyl-8-(5-methyl-1-phenyl-1H-pyrazol-4-yl)-N-[(3S)-1-propanoylpyrrolidin-3-yl]-9H-purin-6-amine]	> 9.00	>10
CCC(=O)N1CC[C@H](Nc2ncnc3c2nc(-c2ncn(CC)c2C)n3C)C1 [Compound 3-12, 8-(1-ethyl-5-methyl-1H-imidazol-4-yl)-9-methyl-N-[(3S)-1-propanoylpyrrolidin-3-yl]-9H-purin-6-amine]	6.16	>10
CCC(=O)N1CC[C@H](Nc2ncnc3c2nc(-c2cncc(N)c2)n3C)C1 [Compound 3-13, 8-(5-aminopyridin-3-yl)-9-methyl-N-[(3S)-1-propanoylpyrrolidin-3-yl]-9H-purin-6-amine]	8.62	>10
CCC(=O)N1CC[C@H](Nc2ncnc3c2nc(-c2ccc(Cl)nc2)n3C)C1 [Compound 3-14, 8-(6-chloropyridin-3-yl)-9-methyl-N-[(3S)-1-propanoylpyrrolidin-3-yl]-9H-purin-6-amine]	8.68	>10
CCC(=O)N1CC[C@H](Nc2ncnc3c2nc(-c2cnc(C)nc2)n3C)C1 [Compound 3-15, 9-methyl-8-(2-methylpyrimidin-5-yl)-N-[(3S)-1-propanoylpyrrolidin-3-yl]-9H-purin-6-amine]	8.37	>10
Cc1ncc(-c2nc3c(N[C@H]4CCN(C(=O)C5CC5)C4)ncnc3n2C)cn1 [Compound 3-23, N-[(3S)-1-(cyclopropylcarbonyl)pyrrolidin-3-yl]-9-methyl-8-(2-methylpyrimidin-5-yl)-9H-purin-6-amine]	8.27	>10
CCn1c(-c2cnc3[nH]ccc3c2)nc2c(N[C@H]3CCN(C(=O)C4CC4)C3)ncnc21 [Compound 3-24, N-[(3S)-1-(cyclopropylcarbonyl)pyrrolidin-3-yl]-9-ethyl-8-(1H-pyrrolo[2,3-b]pyridin-5-yl)-9H-purin-6-amine]	> 9.00	>10
CCn1c(-c2cnc(OC)c(Cl)c2)nc2c(N[C@H]3CCN(C(=O)C4CC4)C3)ncnc21 [Compound 3-25, 8-(5-chloro-6-methoxypyridin-3-yl)-N-[(3S)-1-(cyclopropylcarbonyl)pyrrolidin-3-yl]-9-ethyl-9H-purin-6-amine]	> 9.00	>10
CCC(=O)N1CC[C@H](Nc2ncnc3c2nc(-c2ccc(S(C)(=O)=O)cc2)n3C)C1 [Compound 3-27, 9-methyl-8-[4-(methylsulfonyl)phenyl]-N-[(3S)-1-propanoylpyrrolidin-3-yl]-9H-purin-6-amine]	7.41	>10
CCN(c1ncnc2c1nc(-c1cnc(C)nc1)n2CC)[C@H]1CCN(C(=O)C2CC2)C1 [Compound 3-28, N-[(3S)-1-(cyclopropylcarbonyl)pyrrolidin-3-yl]-N,9-diethyl-8-(2-methylpyrimidin-5-yl)-9H-purin-6-amine]	8.17	>10
CCn1c(-c2cnc(C)nc2)nc2c(N(C)[C@H]3CCN(C(=O)C4CC4)C3)ncnc21 [Compound 3-29, N-[(3S)-1-(cyclopropylcarbonyl)pyrrolidin-3-yl]-9-ethyl-N-methyl-8-(2-methylpyrimidin-5-yl)-9H-purin-6-amine]	7.40	>10
CCn1c(-c2ccc(C(F)(F)F)cc2)nc2c(N[C@H]3CCN(C(=O)C4CC4)C3)ncnc21 [Compound 3-30, N-[(3S)-1-(cyclopropylcarbonyl)pyrrolidin-3-yl]-9-ethyl-8-[4-(trifluoromethyl)phenyl]-9H-purin-6-amine]	8.92	>10
CCC(=O)N1CC[C@H](Nc2ncnc3c2nc(-c2ccc(OC)nc2)n3C)C1 [Compound 3-31, 8-(6-methoxypyridin-3-yl)-9-methyl-N-[(3S)-1-propanoylpyrrolidin-3-yl]-9H-purin-6-amine]	8.40	>10
